In BindingDB's records for doi:10.1021/jm00089a028 (1992):
pIC50: −log10 of the molar value. Residues, ends and D or L forms follow the SMILES beside them.

Each compound was assayed against Endothelin receptor type B (Sus scrofa) (assay: Binding activity against Endothelin B receptor 0f Porcine cerebellum membranes).
`CC(C)C[C@@H]1NC(=O)[C@@H](C(C)C)NC(=O)[C@H](C)N(C)C(=O)[C@@H](CC(=O)O)NC(=O)[C@@H](Cc2c[nH]c3ccccc23)NC1=O` (HELM PEPTIDE1{L.[dW].[dD].[meA].[dV]}$PEPTIDE1,PEPTIDE1,1:R1-5:R2$$$V2.0) gave a pIC50 of 4.33. Compound `CC[C@H](C)[C@H]1NC(=O)[C@H](C)NC(=O)[C@@H](CCC(=O)O)NC(=O)[C@@H](Cc2c[nH]c3ccccc23)NC(=O)[C@H](CC(C)C)NC1=O` (HELM PEPTIDE1{A.[CC[C@H](C)[C@@H](N[*:1])C(=O)[*:2]].L.[dW].[dE]}$PEPTIDE1,PEPTIDE1,1:R1-5:R2$$$V2.0) has a pIC50 of under 4.00. With `CC(C)C[C@@H]1NC(=O)[C@@H](C(C)C)NC(=O)CN(C)C(=O)[C@@H](CC(=O)O)NC(=O)[C@@H](Cc2c[nH]c3ccccc23)NC1=O` (HELM PEPTIDE1{L.[dW].[dD].[Sar].[dV]}$PEPTIDE1,PEPTIDE1,1:R1-5:R2$$$V2.0) the pIC50 was 4.52. `CC(C)[C@H]1NC(=O)[C@H](C)NC(=O)[C@@H](CC(=O)O)NC(=O)[C@@H](Cc2c[nH]c3ccccc23)NC(=O)[C@@H]2CCCN2C1=O` (HELM PEPTIDE1{A.[dV].P.[dW].[dD]}$PEPTIDE1,PEPTIDE1,1:R1-5:R2$$$V2.0) showed a pIC50 of under 4.00. `CC(C)C[C@@H]1NC(=O)[C@@H](C(C)C)NC(=O)[C@@H]2CCCN2C(=O)[C@@H](CCC(=O)O)NC(=O)[C@@H](Cc2c[nH]c3ccccc23)NC1=O` (HELM PEPTIDE1{L.[dW].[dE].P.[dV]}$PEPTIDE1,PEPTIDE1,1:R1-5:R2$$$V2.0) was tested, and the pIC50 was under 4.00.
